From patent US20260137697A1, “THIAZOLO[5,4-D]PYRIMIDINE COMPOUNDS, COMPOSITIONS COMPRISING THEM AND USES THEREOF” (University de Montreal, priority 2022, published 2026)

Test system: pERK, RAS-mutant cancer cell lines
Test: Paradoxical pERK induction across the panel of RAS-mutant cancer cell lines
Assay type: cell-based, human
Details: in 10 of the 13 RAS-mutant cell lines tested; mild to strong induction of the pathway
Protocol: All cancer cell lines (A375, A101D, A2058, RKO, HT29 SK-MEL 30, IPC298, HepG2, HCT-116, Lovo, SW620, SW480, NCI-H358, NCI-H2122, Calu-6, NCIH2087, NCIH1755, NCIH1666 and Mewo) were obtained from ATCC and cultured in RPM1-1640 medium (Gibco) supplemented with 5% heat inactivated fetal bovine serum (FBS, Wisent) at 37° C. under 5% CO2. Cells were maintained in T175 flasks (Greiner). They were passaged by removing the culture medium, washing once in 10 mL of room temperature Phosphate Buffered Saline (PBS; Wisent) and incubating at 37° C. with 2 mL of 0.05% Trypsin (Thermo-Fisher). […]
After treatment, media was removed, and cells were lysed in 50 μL of 1× AlphaScreen Ultra Lysis Buffer (Perkin Elmer). […] After completion of the reactions, the signals were recorded on an EnVision plate reader (Perkin Elmer) using built in AlphaLISA® settings.
The effect of each compound dilution on the pERK signal was expressed in % inhibition and calculated as follows. […]
The ability of each compound to inhibit pERK signal was expressed as an IC50 value obtained by plotting the inhibition values for each data point of a dilution series and fitting the obtained curves using a log(agonist) versus response—variable slope (four parameters) function using GraphPadPrism (V7.0) or Dotmatics Screening Ultra platform. […]

Structure (SMILES): Cc1ccc2c(Nc3cccc(Cl)c3F)nccc2c1NC(=O)c1csc2c(N)ncnc12 [Belvarafenib, reference compound]
- YMIN of pERK IC50 curves: < −30%
